Assay results reported in PMC7686103 (Bioorganic & medicinal chemistry letters, 2020).

How the values were obtained:
hCB1 receptors = hCB1 receptors (Homo sapiens, UniProt P21554); assay: [35S]GTPγS binding, modulation of G-protein activity in CHO-hCB1 cell membranes; type: biochemical; conditions: 10 μM
hCB2 receptors = hCB2 receptors (Homo sapiens, UniProt P34972); assay: [35S]GTPγS binding, modulation of G-protein activity in CHO-hCB2 cell membranes; type: biochemical; conditions: 10 μM
hCB2 receptors, sequence (P34972 whole entry): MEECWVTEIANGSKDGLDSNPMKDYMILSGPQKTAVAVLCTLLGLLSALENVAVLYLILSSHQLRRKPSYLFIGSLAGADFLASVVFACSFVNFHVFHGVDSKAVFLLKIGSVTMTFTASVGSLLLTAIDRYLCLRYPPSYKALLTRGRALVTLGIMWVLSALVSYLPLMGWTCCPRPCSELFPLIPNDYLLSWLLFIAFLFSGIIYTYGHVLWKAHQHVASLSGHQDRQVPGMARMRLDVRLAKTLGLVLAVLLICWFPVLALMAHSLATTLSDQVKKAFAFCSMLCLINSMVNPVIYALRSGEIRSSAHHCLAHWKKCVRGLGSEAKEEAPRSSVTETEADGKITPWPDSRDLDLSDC

hCB1 receptors, sequence (P21554 whole entry): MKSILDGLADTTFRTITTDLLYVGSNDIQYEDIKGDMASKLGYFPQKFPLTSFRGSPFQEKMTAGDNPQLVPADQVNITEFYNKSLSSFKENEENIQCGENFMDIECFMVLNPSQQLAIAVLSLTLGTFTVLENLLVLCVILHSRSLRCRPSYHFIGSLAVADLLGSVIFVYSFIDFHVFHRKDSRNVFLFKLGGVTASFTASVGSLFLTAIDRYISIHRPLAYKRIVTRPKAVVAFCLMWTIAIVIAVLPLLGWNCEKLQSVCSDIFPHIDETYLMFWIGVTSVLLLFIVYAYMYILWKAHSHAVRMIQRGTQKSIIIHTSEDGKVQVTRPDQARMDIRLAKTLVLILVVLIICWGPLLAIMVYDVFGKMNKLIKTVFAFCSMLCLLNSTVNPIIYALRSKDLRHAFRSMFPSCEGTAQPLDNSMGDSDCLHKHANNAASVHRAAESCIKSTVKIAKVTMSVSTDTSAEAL

With O=C1/C(=C/c2cn(Cc3ccc(Br)cc3)c3ncccc23)N2CCC1CC2 [Compound 8f] the “Intrinsic activity at hCB1 receptors (modulation of [35S]GTPγS binding)” value (“Intrinsic activity at hCB1 receptors” below) (hCB1 receptors) was “inverse agonist” and the “Intrinsic activity at hCB2 receptors (modulation of [35S]GTPγS binding)” value (from here on “Intrinsic activity at hCB2 receptors”) (hCB2 receptors) was “neutral antagonist”.

With O=C1/C(=C/c2cn(Cc3ccccc3)c3ncccc23)N2CCC1CC2 [Compound 8a] the “Intrinsic activity at hCB1 receptors” value (hCB1 receptors) was “neutral antagonist” and the “Intrinsic activity at hCB2 receptors” value (hCB2 receptors) was “neutral antagonist”.

O=C1/C(=C/c2cn(Cc3ccc(F)cc3)c3ncccc23)N2CCC1CC2 [Compound 8g] was tested, and the “Intrinsic activity at hCB1 receptors” value (hCB1 receptors) was “neutral antagonist” and the “Intrinsic activity at hCB2 receptors” value (hCB2 receptors) was “partial agonist”.

With COc1ccc(C(=O)c2c(C)n(CCN3CCOCC3)c3cc(I)ccc23)cc1 [AM-630, reference compound] the “Intrinsic activity at hCB2 receptors” value (hCB2 receptors) was “inverse agonist activity”.

For O=C1/C(=C/c2cn(Cc3ccc(Cl)cc3)c3ncccc23)N2CCC1CC2 [Compound 8b], the “Intrinsic activity at hCB1 receptors” value (hCB1 receptors) was “inverse agonist activity” and the “Intrinsic activity at hCB2 receptors” value (hCB2 receptors) was “inverse agonist activity”.
